The text below walks through data of US9358262B2, “Use of antioxidant-enriched fermented blueberry extracts in the treatment of diabetes” (priority 2003, dated 2016).

For data set [1], the system named is RAW 264.7 gamma NO(−) macrophages. Description: Cell viability of activated macrophages (MTT or resazurin assay). The format is cell-based, mouse. On the procedure:
Cell culture. […] All cultures were incubated at 37° C. in a humidified atmosphere with 5% CO2. Cell number was assessed by trypan blue dye exclusion on a Neubauer hemacytometer. Cells were grown to 90% confluence in sterile cell culture flasks and gently detached using a scraper (Fisher Scientific). For phenolic compound treatment tests, cells were cultured in triplicate in Costar flat-bottom cell culture plates (Corning Inc.). Cells were plated at a density of 6×10^5 cells/well in 24-well cell culture plates and grown for 1 h to allow them to attach to the plate. Compounds to be tested were initially dissolved in 10 μl of DMSO, and then RPMI was added to make solutions in a series of concentrations with a dilution factor of 2. […] Cells were supplemented with the test compounds for 1 h before stimulation with 10 ng/ml lipopolysaccharide (LPS) and 10-50 units/ml interferon gamma (IFN-γ). The activated cells were incubated for 24 h and then supernatants were collected to determine nitrite concentration and/or stored at −80° C. for further use. Control cells were grown under identical conditions but were not exposed to the test compounds or LPS/IFN-γ.
Cell Viability. Cell viability was determined by the MTT assay and/or the resazurin-based in vitro toxicology assay kit, TOX-8 (Sigma). The viability of cells activated only by LPS/IFN-γ was arbitrarily set as 100, and all other viabilities, that is, cells receiving different treatments but within the same 24-well plate, were normalized to that of the LPS/IFN-γ activated control cells.
Inhibition of Nitric Oxide Production. […] Cell viability was assayed to exclude the possibility that the inhibitory effects of phenolic compounds were due to their cytotoxicity. The MTT assay was used for the colorless phenolic compound-treated macrophages, whereas the resazurin assay was used for cranberry and blueberry juice-treated macrophages.
Background: Tetrazolium assays rely on reduction of a dye to a coloured formazan, in cell work by metabolically active cells.

The test system of data set [2] is TNF-α production in LPS/IFN-γ-activated RAW 264.7 gamma NO(−) macrophages. Description: TNF-α quantification (ELISA) in supernatants of activated macrophages. The settings on record: for TNF-α: LPS/IFN-γ control = 100; for Effect on TNF-α production, in words: over the tested concentrations. In kind it is cell-based, mouse. On the procedure: Cell culture. The mouse monocyte/macrophage cell line RAW 264.7 gamma NO(−) [American Type Culture Collection (ATCC)] was cultured in RPMI-1640 supplemented with 10% (v/v) heat-inactivated FBS, streptomycin ([…]) and penicillin (100 units/ml). All cultures were incubated at 37° C. in a humidified atmosphere with 5% CO2. Cell number was assessed by trypan blue dye exclusion on a Neubauer hemacytometer. Cells were grown to 90% confluence in sterile cell culture flasks and gently detached using a scraper (Fisher Scientific). For phenolic compound treatment tests, cells were cultured in triplicate in Costar flat-bottom cell culture plates (Corning Inc.). Cells were plated at a density of 6×10^5 cells/well in 24-well cell culture plates and grown for 1 h to allow them to attach to the plate. Compounds to be tested were initially dissolved in 10 μl of DMSO, and then RPMI was added to make solutions in a series of concentrations with a dilution factor of 2. […] For berry juices, the final concentrations were 16, 31, 63, 125, 250 and 500 μM GAE, respectively. Cells were supplemented with the test compounds for 1 h before stimulation with 10 ng/ml lipopolysaccharide (LPS) and 10-50 units/ml interferon gamma (IFN-γ). The activated cells were incubated for 24 h and then supernatants were collected to determine nitrite concentration and/or stored at −80° C. for further use. Control cells were grown under identical conditions but were not exposed to the test compounds or LPS/IFN-γ.
Tumour necrosis factor alpha (TNF-α) Quantification. TNF-α in cell supernatants was determined by using an OptELISA set mouse TNF-α (mono/poly) from BD PharMingen. The enzyme-linked immunosorbent assay (ELISA) was carried out as specified by the manufacturer.
For orientation: ELISA stands for enzyme-linked immunosorbent assay.

[3] abbreviates: NO experiment (Table 7), 31 μM, LPS/IFN-γ control = 100.
The mark [4] stands for this setting: NO experiment (Table 7), 63 μM, LPS/IFN-γ control = 100.
Where [5] appears, read: NO experiment (Table 7), 125 μM, LPS/IFN-γ control = 100.
The mark [6] stands for this setting: TNF-α experiment (Table 8), 100 μM.
Setting [7] is: TNF-α experiment (Table 8), 200 μM.
The mark [8] stands for this setting: TNF-α experiment (Table 8), 300 μM.
Where [9] appears, read: TNF-α experiment (Table 8), 400 μM.
Setting [10] is: TNF-α experiment (Table 8), 500 μM.

The structures appear in SMILES notation.

As to `O=C(/C=C/c1ccc(O)c(O)c1)O[C@@H]1C[C@](O)(C(=O)O)C[C@@H](O)[C@H]1O` [Chlorogenic acid], the Cell viability in data set [1] (setting [3]) is 105.6 (8.7) %; in data set [1] (setting [4]), 106 (5.7) %; in data set [1] (setting [5]), 98.5 (7.1) %; in data set [1] (setting [6]) it was 100.6 (1.9) %; in data set [1] (setting [7]), 98.9 (2.3) %; in data set [1] (setting [8]) it was 97.1 (1.4) %. Besides, the Cell viability in data set [1] (setting [9]) is 97.3 (1) %; in data set [1] (setting [10]) it was 99 (1.9) %. For the same compound, the TNF-α in data set [2] (50 μM) is recorded as 105.7 (8.4) %; in data set [2] (200 μM) it was 99.2 (7.6) %; in data set [2] (400 μM), 126 (31.1) %; in data set [2] (500 μM) it was 115.6 (15.4) %. The “Effect on TNF-α production, in words” value in data set [2] is “may induce TNF-α production”.
`O=C(O)c1cc(O)c(O)c(O)c1` [Gallic acid]: the Cell viability in data set [1] (NO experiment (Table 7), 16 μM, LPS/IFN-γ control = 100) was 110 (2.2) %; in data set [1] (setting [3]), 111 (6.4) %; in data set [1] (setting [4]), 98.9 (0.9) %; in data set [1] (setting [5]), 108.5 (0.6) %; in data set [1] (NO experiment (Table 7), 250 μM, LPS/IFN-γ control = 100), 100.6 (3.7) %; in data set [1] (NO experiment (Table 7), 500 μM, LPS/IFN-γ control = 100), 109.7 (5.4) %. Besides, the Cell viability in data set [1] (TNF-α experiment (Table 8), 50 μM) is 97.7 (0.4) %; in data set [1] (setting [6]), 98.3 (2.3) %; in data set [1] (setting [7]), 96.7 (0.8) %; in data set [1] (setting [8]) it was 97.6 (2.5) %; in data set [1] (setting [9]) it was 96.1 (2.3) %; in data set [1] (setting [10]), 95.6 (1.6) %. Besides, the TNF-α in data set [2] (50 μM) is listed as 103.4 (3.2) %; in data set [2] (100 μM), 126.2 (11) %; in data set [2] (200 μM), 160.3 (8.4) %; in data set [2] (300 μM), 257.4 (36.7) %; in data set [2] (400 μM), 213.9 (54.8) %; in data set [2] (500 μM) it was 183.5 (19.8) %. Also, the “Effect on TNF-α production, in words” value in data set [2] is “may induce TNF-α production”.
